{
  "source": "paper PMC4269829",
  "about": "(Cancer cell, 2014)",
  "origin": "cited, not measured here",
  "key": {"[1]": {"test_system": "ALK variant with L1196M mutation", "conditions": "crizotinib-resistant L1196M mutation; ref Friboulet et al., 2014"}, "[2]": {"test_system": "ALK variant with I1171T mutation", "conditions": "crizotinib-resistant I1171T mutation; ref Friboulet et al., 2014"}, "ALK with F1174 mutation": {"test_system": "ALK with F1174 mutation", "conditions": "ref Friboulet et al., 2014"}},
  "data": [
    {"molecule": "Cc1cc(Nc2ncc(Cl)c(Nc3ccccc3S(=O)(=O)C(C)C)n2)c(OC(C)C)cc1C1CCNCC1", "note": "[ceritinib]", "values": [
      {"measurement": "inhibition of ALK variant (in words)", "setting": "[1]", "value": "inhibit"},
      {"measurement": "inhibition of ALK variant (in words)", "setting": "[2]", "value": "inhibit"},
      {"measurement": "overcoming resistance of ALK mutation (in words)", "setting": "ALK with F1174 mutation", "value": "not to overcome resistance"}
    ]}
  ]
}
